“Also recorded” adds a separate entry of the source.
How the values were obtained:
in vitro [1] = settings: African green monkey
SARS-CoV-2 [2] = assay: microbe, parasite or virus in culture; format: cell-based; settings: for selectivity index (SI): SARS-CoV-2, Vero-E6 cells; for IC50: Severe acute respiratory syndrome coronavirus 2, Vero C1008, 48 h, read-out: IC50 against SARS-CoV-2
HCoV-229E [3] = assay: HCoV-229E-Luc infection inhibition assay (fractions and pure compounds) in Huh7 cells; format: cell-based; settings: for IC50: Human coronavirus 229E, Huh-7, 12 h, read-out: IC50 (concentration inhibited infection by 50%)
in vitro [4] = settings: human
HCoV-229E [5] = assay: microbe, parasite or virus in culture; format: cell-based; settings: Human coronavirus 229E, Huh-7; read-out: inhibition of infection after pre-incubation of virus particles
SARS-CoV-2 [6] = format: cell-based
HCoV-229E [7] = assay: Time-of-drug addition assay in HCoV-229E-Luc-infected Huh7 cells; format: cell-based; settings: 2 and 3 at 0.2 µM; for inhibition of infection when present during the virus entry step: Q3G 25 µM, co-added with virus for 1 h; for inhibition of infection when added after virus inoculation (replication step): Remdesivir 0.1 µM, luciferase activity

Row | SMILES | CC50 (in vitro [1]) [nM] | antiviral activity against SARS-CoV-2 (in words) (SARS-CoV-2 [2]; Vero-E6 cells, non-cytotoxic concentrations) | antiviral activity against HCoV-229E (in words) (HCoV-229E [3]; non-cytotoxic doses (up to 0.25 µM), Huh7 cells) | CC50 (in vitro [4]) [nM] | inhibition at 0.2 µM (HCoV-229E [5]) [%] | selectivity index (SI) (SARS-CoV-2 [2]) | IC50 (SARS-CoV-2 [2]) [nM] | SI, selectivity index (CC50/IC50) (HCoV-229E [3]) | effect on HCoV-229E-Luc infection at 0.01 µM without pre-incubation (HCoV-229E [3]; Huh7 cells) | IC50 (HCoV-229E [3]) [nM] | decrease of viral progeny (residual infectivity) (SARS-CoV-2 [6]) | inhibition of infection when present during the virus entry step (HCoV-229E [7]) | inhibition of infection when added after virus inoculation (replication step) (HCoV-229E [7])
1 | CCCC=CCCCCCCCCCCCC(O)Cc1cc(O)ccc1O (stereo not drawn) [Compound 1, (2′. R)-2-[(14′Z)-2′-Hydroxyoctadec-14′-en-1′-yl]benzene-1,4-diol] | 1500 ± 200 | no antiviral activity | no antiviral effect; also recorded: no antiviral activity | 1300 ± 100 | – | – | – | – | – | – | – | – | –
2 | CCCCC=CCCCCCCCCCCCC(O)Cc1cc(O)ccc1O (stereo not drawn) [Compound 2, (2′R)-2-[(14′Z)-2′-hydroxynonadec-14′-en-1′-yl]benzene-1,4-diol] | 500 ± 80 | – | – | 500 ± 50 | ≤ 60 | 2.5 | 200 | 5 | does not inhibit | 100 ± 30 | up to 1 log | strong inhibition of infection | no inhibition of infection
3 | CCCCCCCCCCCCCCCC[C@@H](O)Cc1cc(O)ccc1O [Compound 3, (2′R)-(2-(2-hydroxyoctadecyl)benzene-1,4-diol)] | 900 ± 200 | – | – | 800 ± 100 | ≤ 80 | 18 | 50 | 16 | does not inhibit | 50 ± 40 | – | strong inhibition of infection | no inhibition of infection
4 | O=c1c(O[C@@H]2O[C@H](CO)[C@@H](O)[C@H](O)[C@H]2O)c(-c2ccc(O)c(O)c2)oc2cc(O)cc(O)c12 [Compound Q3G, Isoquercitrin, reference compound] | – | – | – | – | – | – | – | – | – | – | – | strong inhibition of infection | –
5 | CCC(CC)COC(=O)[C@H](C)N[P@](=O)(OC[C@H]1O[C@@](C#N)(c2ccc3c(N)ncnn23)[C@H](O)[C@@H]1O)Oc1ccccc1 [Remdesivir, reference compound] | – | – | – | – | – | – | – | – | – | – | – | – | strongly inhibited viral replication

— publication PMC10384782, “New Phenolic Lipids from the Leaves of Clausena harmandiana Inhibit SARS-CoV-2 Entry into Host Cells” (Molecules, 2023)
